The target in one assay is T1, Histone deacetylase 8 (Homo sapiens, UniProt Q9BY41).
T1 sequence (Q9BY41 whole entry): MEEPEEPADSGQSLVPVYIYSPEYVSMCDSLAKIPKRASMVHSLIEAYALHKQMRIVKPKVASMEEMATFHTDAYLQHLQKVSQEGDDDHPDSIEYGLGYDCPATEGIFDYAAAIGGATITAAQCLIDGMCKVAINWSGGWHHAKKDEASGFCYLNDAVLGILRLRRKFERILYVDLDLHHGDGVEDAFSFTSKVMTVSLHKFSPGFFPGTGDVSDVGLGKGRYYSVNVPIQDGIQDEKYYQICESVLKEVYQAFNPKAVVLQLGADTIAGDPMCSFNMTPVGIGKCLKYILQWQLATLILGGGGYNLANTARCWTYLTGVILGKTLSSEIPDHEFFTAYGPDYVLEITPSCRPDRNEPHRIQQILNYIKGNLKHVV
The assay can be described thus: Inhibition of human HDAC8 using fluorogenic HDAC substrate.

The target in another assay is Histone deacetylase 1 (Homo sapiens, UniProt Q13547). The assay can be described thus: Inhibition of human HDAC1 using fluorogenic HDAC substrate.
The target in another assay is Histone deacetylase 2 (Homo sapiens, UniProt Q92769). In words: Inhibition of human HDAC2 using fluorogenic HDAC substrate.
Assay [1] addresses T2, Protein deacetylase HDAC6 (Homo sapiens, UniProt Q9UBN7).
T2 sequence (Q9UBN7 whole entry): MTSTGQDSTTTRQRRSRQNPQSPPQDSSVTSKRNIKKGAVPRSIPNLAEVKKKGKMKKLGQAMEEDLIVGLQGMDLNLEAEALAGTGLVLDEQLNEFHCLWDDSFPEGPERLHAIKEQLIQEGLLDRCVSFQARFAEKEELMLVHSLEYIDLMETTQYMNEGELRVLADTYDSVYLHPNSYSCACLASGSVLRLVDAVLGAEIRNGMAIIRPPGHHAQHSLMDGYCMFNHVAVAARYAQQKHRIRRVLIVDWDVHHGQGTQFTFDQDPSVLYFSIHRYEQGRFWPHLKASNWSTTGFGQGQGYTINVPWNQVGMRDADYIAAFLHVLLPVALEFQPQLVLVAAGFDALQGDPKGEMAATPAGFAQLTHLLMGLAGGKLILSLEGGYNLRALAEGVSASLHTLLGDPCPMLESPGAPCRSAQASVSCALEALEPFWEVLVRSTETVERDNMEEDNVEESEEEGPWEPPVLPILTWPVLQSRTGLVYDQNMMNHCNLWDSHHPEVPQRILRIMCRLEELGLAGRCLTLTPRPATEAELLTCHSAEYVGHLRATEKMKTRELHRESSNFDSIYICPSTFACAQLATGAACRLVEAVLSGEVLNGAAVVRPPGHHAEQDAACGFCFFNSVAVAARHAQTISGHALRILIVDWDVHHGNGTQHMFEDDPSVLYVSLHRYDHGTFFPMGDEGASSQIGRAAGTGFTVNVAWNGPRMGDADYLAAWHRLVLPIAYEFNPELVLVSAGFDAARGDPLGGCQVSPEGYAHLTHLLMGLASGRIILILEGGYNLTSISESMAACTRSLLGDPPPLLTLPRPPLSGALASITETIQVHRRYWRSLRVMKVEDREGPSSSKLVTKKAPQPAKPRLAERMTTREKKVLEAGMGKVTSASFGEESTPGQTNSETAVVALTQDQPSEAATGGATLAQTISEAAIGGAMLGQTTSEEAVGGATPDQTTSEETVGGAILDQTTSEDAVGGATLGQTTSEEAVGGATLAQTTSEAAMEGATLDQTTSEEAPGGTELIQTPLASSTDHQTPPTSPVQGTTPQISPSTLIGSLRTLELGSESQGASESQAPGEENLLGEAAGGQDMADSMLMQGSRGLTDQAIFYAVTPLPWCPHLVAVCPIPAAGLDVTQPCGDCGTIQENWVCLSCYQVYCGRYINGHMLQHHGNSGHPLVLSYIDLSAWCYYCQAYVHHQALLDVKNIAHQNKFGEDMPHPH
In words: Inhibition of human HDAC6 using fluorogenic HDAC substrate.

Another assay has as its target T3, Histone deacetylase 7 (Homo sapiens, UniProt Q8WUI4).
T3 sequence (Q8WUI4 whole entry): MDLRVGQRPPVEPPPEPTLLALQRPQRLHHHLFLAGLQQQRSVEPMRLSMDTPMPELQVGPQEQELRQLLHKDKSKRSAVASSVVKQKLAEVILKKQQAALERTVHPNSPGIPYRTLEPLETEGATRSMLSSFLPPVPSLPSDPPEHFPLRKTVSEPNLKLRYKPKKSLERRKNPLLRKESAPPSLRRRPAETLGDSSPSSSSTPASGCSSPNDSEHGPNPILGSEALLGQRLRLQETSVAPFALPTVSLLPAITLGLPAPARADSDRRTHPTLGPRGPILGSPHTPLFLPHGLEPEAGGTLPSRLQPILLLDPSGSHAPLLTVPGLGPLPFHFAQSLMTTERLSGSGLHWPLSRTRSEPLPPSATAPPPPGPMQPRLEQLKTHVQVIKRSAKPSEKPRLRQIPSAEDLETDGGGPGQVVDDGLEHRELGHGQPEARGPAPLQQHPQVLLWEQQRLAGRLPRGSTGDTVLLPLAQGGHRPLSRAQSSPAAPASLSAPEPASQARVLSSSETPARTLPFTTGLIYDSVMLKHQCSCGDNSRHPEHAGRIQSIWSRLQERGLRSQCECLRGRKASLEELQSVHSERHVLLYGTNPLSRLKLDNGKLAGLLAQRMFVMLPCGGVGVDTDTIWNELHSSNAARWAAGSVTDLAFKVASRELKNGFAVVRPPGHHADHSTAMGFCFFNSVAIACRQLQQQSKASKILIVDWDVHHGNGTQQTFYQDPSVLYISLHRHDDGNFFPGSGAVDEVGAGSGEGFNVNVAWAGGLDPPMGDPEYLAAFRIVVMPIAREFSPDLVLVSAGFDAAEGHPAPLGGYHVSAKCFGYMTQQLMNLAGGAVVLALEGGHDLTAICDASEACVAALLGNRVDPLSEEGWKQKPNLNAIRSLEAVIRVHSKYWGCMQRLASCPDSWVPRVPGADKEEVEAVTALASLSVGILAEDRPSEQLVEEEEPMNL
In words: Inhibition of human HDAC7 using fluorogenic HDAC substrate.

In a further assay the target is T4, Histone deacetylase 11 (Homo sapiens, UniProt Q96DB2).
T4 sequence (Q96DB2 whole entry): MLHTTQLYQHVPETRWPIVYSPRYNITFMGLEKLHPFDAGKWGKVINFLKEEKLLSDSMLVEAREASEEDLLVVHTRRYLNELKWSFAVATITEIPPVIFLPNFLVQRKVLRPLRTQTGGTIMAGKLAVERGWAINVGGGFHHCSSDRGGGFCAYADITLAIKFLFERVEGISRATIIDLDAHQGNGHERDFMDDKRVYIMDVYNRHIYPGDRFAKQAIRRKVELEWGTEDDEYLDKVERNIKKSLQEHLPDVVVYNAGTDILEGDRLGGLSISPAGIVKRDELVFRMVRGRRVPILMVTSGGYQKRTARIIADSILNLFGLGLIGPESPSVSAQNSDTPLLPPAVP
In words: Inhibition of human HDAC11 using fluorogenic HDAC substrate.

The target in the next assay is Histone deacetylase 3 (Homo sapiens, UniProt O15379). The assay can be described thus: Inhibition of human HDAC3 using fluorogenic HDAC substrate.

We go through one compound from ChEMBL document CHEMBL4422610, “HDAC as onco target: Reviewing the synthetic approaches with SAR study of their inhibitors” (Eur J Med Chem, 2018).

Chain of Histone deacetylase 3 (O15379 whole entry): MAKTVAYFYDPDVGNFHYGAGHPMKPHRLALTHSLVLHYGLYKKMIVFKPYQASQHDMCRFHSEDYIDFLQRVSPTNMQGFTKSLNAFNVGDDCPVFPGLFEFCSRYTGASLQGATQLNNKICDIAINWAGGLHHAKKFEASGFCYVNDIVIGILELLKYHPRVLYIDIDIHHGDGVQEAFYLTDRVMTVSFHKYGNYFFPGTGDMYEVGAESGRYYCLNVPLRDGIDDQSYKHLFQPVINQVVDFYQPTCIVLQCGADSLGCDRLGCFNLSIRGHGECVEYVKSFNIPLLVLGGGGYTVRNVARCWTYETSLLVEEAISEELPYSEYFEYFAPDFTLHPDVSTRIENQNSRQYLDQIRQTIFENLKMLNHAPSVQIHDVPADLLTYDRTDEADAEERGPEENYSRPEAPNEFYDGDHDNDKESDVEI
Chain of Histone deacetylase 2 (Q92769 whole entry): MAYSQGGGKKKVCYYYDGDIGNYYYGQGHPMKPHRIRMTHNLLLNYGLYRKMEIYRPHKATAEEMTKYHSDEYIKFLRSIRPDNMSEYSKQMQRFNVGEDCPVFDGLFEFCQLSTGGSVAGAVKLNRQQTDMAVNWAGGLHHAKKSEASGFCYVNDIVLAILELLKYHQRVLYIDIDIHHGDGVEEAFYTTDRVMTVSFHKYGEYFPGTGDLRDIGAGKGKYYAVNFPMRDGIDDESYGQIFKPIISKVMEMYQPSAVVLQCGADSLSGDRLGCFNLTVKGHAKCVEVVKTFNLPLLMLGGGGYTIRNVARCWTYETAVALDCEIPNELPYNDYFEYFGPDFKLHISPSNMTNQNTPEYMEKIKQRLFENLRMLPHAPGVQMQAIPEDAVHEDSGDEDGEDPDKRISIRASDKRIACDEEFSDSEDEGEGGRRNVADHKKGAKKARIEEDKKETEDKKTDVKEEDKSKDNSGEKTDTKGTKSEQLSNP
Chain of Histone deacetylase 1 (Q13547 whole entry): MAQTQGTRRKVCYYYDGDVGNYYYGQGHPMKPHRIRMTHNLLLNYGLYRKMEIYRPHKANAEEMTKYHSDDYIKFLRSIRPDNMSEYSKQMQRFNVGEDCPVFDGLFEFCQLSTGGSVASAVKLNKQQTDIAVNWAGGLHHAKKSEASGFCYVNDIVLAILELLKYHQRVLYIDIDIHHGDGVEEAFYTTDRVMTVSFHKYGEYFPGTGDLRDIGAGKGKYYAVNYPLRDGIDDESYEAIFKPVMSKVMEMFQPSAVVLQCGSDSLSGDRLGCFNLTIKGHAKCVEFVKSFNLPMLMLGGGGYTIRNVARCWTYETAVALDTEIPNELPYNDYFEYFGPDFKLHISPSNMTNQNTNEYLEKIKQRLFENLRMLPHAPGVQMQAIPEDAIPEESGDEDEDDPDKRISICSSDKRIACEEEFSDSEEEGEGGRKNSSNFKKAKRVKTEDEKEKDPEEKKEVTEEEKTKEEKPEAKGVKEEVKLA

For orientation: IC50 means the concentration that inhibits the measured activity by half. With `O=C(NO)c1ccc(CN2c3ccccc3CC[C@@H]3CCCC[C@H]32)cc1`, the 50% inhibitory concentration (IC50) was 2.9 µM against Histone deacetylase 8; 4.9 µM at Histone deacetylase 1; 26 µM against Histone deacetylase 2; 0.006 µM in assay [1]; over 30 µM at Histone deacetylase 7; 0.54 µM at Histone deacetylase 11. Besides, the IC50 at Histone deacetylase 3 was over 30 µM.
